Measured values reported in patent US6294542A, “Pyrimidinone compounds, pharmaceutical compositions containing the compounds and the process for preparing the same” (Boryung Pharmaceutical Co. Ltd., priority 1998, dated 2001).

How the values were obtained:
[1] = test system: Angiotensin II-induced pressor response; assay: In vivo Angiotensin II antagonism in conscious normotensive rats; conditions: Rattus norvegicus, po; P.O.; conscious normotensive male SD rats; Angiotensin II 0.1 μg/kg; read-out: ID50 (dose of test compound necessary to produce 50% inhibition of Angiotensin II-induced pressor response)
Method: The antagonistic activity of the compound (I) against the angiotensin II, which is prepared by the process according to a preferred embodiment of the invention, was evaluated with relation to rats.
In vivo Angiotensin II antagonism in conscious normotensive rats.
Male SD rats (Charles River Japan, 9 weeks, 300-350 g) were anesthetized with pentobarbital at 50 mg/kg i.p. Both the left femoral artery and the right femoral vein were cannulated. A heparin-filled catheter (50U/ml) was tunneled subcutaneously (s.c.) to the dorsal side of the neck and exteriorized.
Rats were permitted to recover overnight from anesthesia and allowed free access to water, but food was withheld.
The next day, the femoral artery catheter was connected to a pressure transducer (COBE 041-500-508, USA) coupled to a polygraph (GRASS Model 7, USA) to monitor arterial blood pressure. After an appropriate equilibration period, Angiotensin II (0.1 μg/kg) was injected in the femoral vein three times during the control period.
Test compounds were then administered orally (p.o.) at a constant volume of 2 ml/kg.
Angiotensin II challenges were repeated at set times thereafter.
ID50 values, the dose of test compound necessary to produce 50% inhibition of Angiotensin II-induced pressor response, were calculated from peak inhibition percentage with several doses of test compound.

[2] = Acute Toxicity Test (oral, mice); format: in vivo; conditions: for LD50: mouse, in vivo, po
Method: Respective 5 mice of ICR system, which was distributed from Korean Laboratory Animal Center, were bred in a polycarbonate breeding box at a breeding environment of 23±1° C. of temperature, 55±5% of humidity, 10-15 times/hr of evacuation, 12 hr cycle of fluorescent light luminance, and 150-300 Lux of illumination.
After observing the mice for one week of acclimation breeding period, only normal mice were selected for laboratory work. The mice were fed with sterilized feed for laboratory animals, which was made by Cheil Jedang Co.,Ltd, and supplied with purified water to drink.
During the acclimation period, mice, who were evaluated to be healthy, were weighed and divided into groups randomly. Individual identification of laboratory animals was performed by indumentum pigment display and tag display per breeding box.
Establishment of dose was carried out according to a result of preliminary test in such a manner that a maximum dose group for both male and female was set to 5000 mg/kg and azeotropy was set to 1.71. Medium-high, medium and medium-low dose groups were respectively set as follows and a control group was administrated with physiological saline for injection.
Before administration of testing substances, body weight of the laboratory animals was in the range of 24-28 g in case of male and in the range of 19-28 g in case of female, respectively. The laboratory animals were aged 6 weeks.
Preparation of the testing substances was dissolved in physiological saline before administration. Dose was calculated according to the body weight which was measured before administration and dispensed by oral administration to a mouse who was in abrosia for 18 hours before testing.
Observation of clinical symptom such as general change, toxic symptom and mortality was performed for all laboratory animals once an hour during 6 hours after administration on the very administration day, and once a day from the next day to 14th day of administration.
Administration group, who was administered with testing substances, and the control group were weighed on the administration day, first, third, seventh, tenth and fourteenth days from the administration at a predetermined time for all animals who were alive.
After finish of the test, all animals were slightly anesthetized with ether and bleeding-killed. Appearance and internal organs of the animals were examined with naked eye carefully. Animals, who died during the text, were examined in the same manner.

CCCCc1nc(C)c(CC(N)=S)c(=O)n1Cc1ccc(-c2ccccc2-c2nnn[nH]2)cc1 [Compound 1, 2-n-butyl-5-aminothiocarbonylmethyl-6-methyl-3-[[2'-(1H-tetrazol-5-yl)biphenyl-4-yl]methyl]-pyrimidine-4(3H)-one]
ED50 [1]: > 3 mg/kg

CCCCc1nc(C)c(CC(=S)N(C)C)c(=O)n1Cc1ccc(-c2ccccc2-c2nnn[nH]2)cc1 [Compound 2, 2-n-butyl-5-dimethylaminothiocarbonylmethyl-6-methyl-3-[[2'-(1H-tetrazol-5-yl)biphenyl-4-yl]methyl]-pyrimidine-4(3H)-one]
ED50 [1]: 1.1 mg/kg | Mortality (death number/survival number) ([2]; female, 1000 mg/kg oral, day 0): 0/5 | Mortality (death number/survival number) ([2]; female, 1000 mg/kg oral, day 1): 0/5 | Mortality (death number/survival number) ([2]; female, 1000 mg/kg oral, day 2): 0/5 | Mortality (death number/survival number) ([2]; female, 1000 mg/kg oral, day 3): 0/5 | Mortality (death number/survival number) ([2]; female, 1000 mg/kg oral, day 7): 0/5 | Mortality (death number/survival number) ([2]; female, 1000 mg/kg oral, day 14): 0/5 | Mortality (death number/survival number) ([2]; female, 1710 mg/kg oral, day 0): 0/5 | Mortality (death number/survival number) ([2]; female, 1710 mg/kg oral, day 1): 0/5 | Mortality (death number/survival number) ([2]; female, 1710 mg/kg oral, day 2): 0/5 | Mortality (death number/survival number) ([2]; female, 1710 mg/kg oral, day 3): 0/5 | Mortality (death number/survival number) ([2]; female, 1710 mg/kg oral, day 7): 0/5 | Mortality (death number/survival number) ([2]; female, 1710 mg/kg oral, day 14): 0/5 | Mortality (death number/survival number) ([2]; female, 2924 mg/kg oral, day 0): 0/5 | Mortality (death number/survival number) ([2]; female, 2924 mg/kg oral, day 1): 0/5 | Mortality (death number/survival number) ([2]; female, 2924 mg/kg oral, day 2): 0/5 | Mortality (death number/survival number) ([2]; female, 2924 mg/kg oral, day 3): 0/5 | Mortality (death number/survival number) ([2]; female, 2924 mg/kg oral, day 7): 0/5 | Mortality (death number/survival number) ([2]; female, 2924 mg/kg oral, day 14): 0/5 | Final mortality (death number/total number) ([2]; female, 5000 mg/kg oral): 0/5 | Mortality (death number/survival number) ([2]; female, 5000 mg/kg oral, day 0): 0/5 | Mortality (death number/survival number) ([2]; female, 5000 mg/kg oral, day 1): 0/5 | Mortality (death number/survival number) ([2]; female, 5000 mg/kg oral, day 2): 0/5 | Mortality (death number/survival number) ([2]; female, 5000 mg/kg oral, day 3): 0/5 | Mortality (death number/survival number) ([2]; female, 5000 mg/kg oral, day 7): 0/5 | Mortality (death number/survival number) ([2]; female, 5000 mg/kg oral, day 14): 0/5 | Mortality (death number/survival number) ([2]; male, 1000 mg/kg oral, day 0): 0/5 | Mortality (death number/survival number) ([2]; male, 1000 mg/kg oral, day 1): 0/5 | Mortality (death number/survival number) ([2]; male, 1000 mg/kg oral, day 2): 0/5 | Mortality (death number/survival number) ([2]; male, 1000 mg/kg oral, day 3): 0/5 | Mortality (death number/survival number) ([2]; male, 1000 mg/kg oral, day 7): 0/5 | Mortality (death number/survival number) ([2]; male, 1000 mg/kg oral, day 14): 0/5 | Mortality (death number/survival number) ([2]; male, 1710 mg/kg oral, day 0): 0/5 | Mortality (death number/survival number) ([2]; male, 1710 mg/kg oral, day 1): 0/5 | Mortality (death number/survival number) ([2]; male, 1710 mg/kg oral, day 2): 0/5 | Mortality (death number/survival number) ([2]; male, 1710 mg/kg oral, day 3): 0/5 | Mortality (death number/survival number) ([2]; male, 1710 mg/kg oral, day 7): 0/5 | Mortality (death number/survival number) ([2]; male, 1710 mg/kg oral, day 14): 0/5 | Mortality (death number/survival number) ([2]; male, 2924 mg/kg oral, day 0): 0/5 | Mortality (death number/survival number) ([2]; male, 2924 mg/kg oral, day 1): 0/5 | Mortality (death number/survival number) ([2]; male, 2924 mg/kg oral, day 2): 0/5 | Mortality (death number/survival number) ([2]; male, 2924 mg/kg oral, day 3): 0/5 | Mortality (death number/survival number) ([2]; male, 2924 mg/kg oral, day 7): 0/5 | Mortality (death number/survival number) ([2]; male, 2924 mg/kg oral, day 14): 0/5 | Final mortality (death number/total number) ([2]; male, 5000 mg/kg oral): 0/5 | Mortality (death number/survival number) ([2]; male, 5000 mg/kg oral, day 0): 0/5 | Mortality (death number/survival number) ([2]; male, 5000 mg/kg oral, day 1): 0/5 | Mortality (death number/survival number) ([2]; male, 5000 mg/kg oral, day 2): 0/5 | Mortality (death number/survival number) ([2]; male, 5000 mg/kg oral, day 3): 0/5 | Mortality (death number/survival number) ([2]; male, 5000 mg/kg oral, day 7): 0/5 | Mortality (death number/survival number) ([2]; male, 5000 mg/kg oral, day 14): 0/5 | LD50 ([2]; female mice): > 5000 mg/kg | LD50 ([2]; male mice): > 5000 mg/kg

CCCCc1nc(C)c(CC(=S)N(CC)CC)c(=O)n1Cc1ccc(-c2ccccc2-c2nnn[nH]2)cc1 [Compound 3, 2-n-butyl-5-diethylaminothiocarbonylmethyl-6-methyl-3-[[2'-(1H-tetrazol-5-yl)biphenyl-4-yl]methyl]-pyrimidine-4(3H)-one]
ED50 [1]: < 3 mg/kg

CCCCc1nc(C)c(CC(=S)N2CCCCCCC2)c(=O)n1Cc1ccc(-c2ccccc2-c2nn[nH]n2)cc1 [Compound 4, 2-n-butyl-5-heptamethyleniminothiocarbonyl-methyl-6-methyl-3-[[2'-(1H-tetrazol-5-yl)biphenyl-4-yl]methyl]-pyrimidine-4(3H)-one]
ED50 [1]: 3.1 mg/kg

CCCCc1nc(C)c(CC(=S)N2CCSCC2)c(=O)n1Cc1ccc(-c2ccccc2-c2nn[nH]n2)cc1 [Compound 5, 2-n-butyl-5-thiomorpholynothiocarbonylmethyl-6-methyl-3-[[2'-(1H-tetrazol-5-yl)-biphenyl-4-yl]methyl]-pyrimidine-4(3H)-one]
ED50 [1]: < 3 mg/kg

CCCCc1nc(C)c(CC(=S)N2CCOCC2)c(=O)n1Cc1ccc(-c2ccccc2-c2nn[nH]n2)cc1 [Compound 6]
ED50 [1]: < 3 mg/kg

CCCCc1nc(C)c(CC(=S)N2CCCCC2)c(=O)n1Cc1ccc(-c2ccccc2-c2nnn[nH]2)cc1 [Compound 7, 2-n-butyl-5-piperidinothiocarbonylmethyl-6-methyl-3-[[2 '-(1H-tetrazol-5-yl)-biphenyl-4-yl]methyl]-pyrimidine-4(3H)-one]
ED50 [1]: < 3 mg/kg

CCCCc1nc(C)c(CC(=S)N2CCC2)c(=O)n1Cc1ccc(-c2ccccc2-c2nn[nH]n2)cc1 [Compound 9, 2-n-butyl-5-azetidinothiocarbonylmethyl-6-methyl-3-[[2'-(1H-tetrazol-5-yl)-biphenyl-4-yl]methyl]-pyrimidine-4 (3H)-one]
ED50 [1]: 1.19 mg/kg
